Where two headings read alike, the source gives them in different places.
Columns and labels:
CmlI [1] = target: T1, CmlI (Streptomyces venezuelae, UniProt F2RB83); assay: stopped-flow at […] nm, hyperbolic fit of reciprocal relaxation times; format: binding
CmlI [2] = target: T1, CmlI; assay: as above; format: binding; remark: listed apart in the source

T1 sequence (F2RB83 whole entry): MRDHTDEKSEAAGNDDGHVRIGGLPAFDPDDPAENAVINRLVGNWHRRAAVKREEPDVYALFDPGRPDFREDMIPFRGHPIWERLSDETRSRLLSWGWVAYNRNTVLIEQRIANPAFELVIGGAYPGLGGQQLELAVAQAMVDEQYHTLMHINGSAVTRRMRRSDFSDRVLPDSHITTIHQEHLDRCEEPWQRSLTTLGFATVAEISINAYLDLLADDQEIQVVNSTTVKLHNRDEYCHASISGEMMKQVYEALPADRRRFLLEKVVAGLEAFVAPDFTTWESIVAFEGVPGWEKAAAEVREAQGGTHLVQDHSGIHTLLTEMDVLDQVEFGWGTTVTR

Compound | Kd (CmlI [1]) | Kd (CmlI [2])
O=C(N[C@H](CO)[C@H](O)c1ccc(NO)cc1)C(Cl)Cl [NH(OH)-CAM] | 1.1 ± 0.05 mM | –
Nc1ccc([C@@H](O)[C@@H](CO)NC(=O)C(Cl)Cl)cc1 [NH2-CAM, D-threo-1-(4-aminophenyl)-2-dichloroacetylamino-1,3-propanediol] | – | 8.5 ± 1.5 mM
O=Nc1ccc([C@@H](O)[C@@H](CO)NC(=O)C(Cl)Cl)cc1 [NO-CAM] | – | 8.6 ± 1 mM

— PMC5605456 (Biochemistry, 2017)
